{
  "source": "patent US7125854B2",
  "about": "“Bicyclic carbohydrates as antiprotozoal bioactive for the treatment of infections caused by parasites” (Kemin Pharma B.V.B.A., priority 2003, dated 2006)",
  "key": {"P. falciparum [1]": {"test_system": "P. falciparum", "test": "WHO screening against P. falciparum (Table 1)", "format": "cell-based", "settings": "Plasmodium falciparum; Table 1, WHO screening", "description": "(§1) Compound A1 was screened against Trypanosoma brucei by World Health Organization (Switzerland) using its established screening service."}, "P. falciparum [2]": {"test_system": "P. falciparum", "test": "Screening against P. falciparum (Table 2)", "format": "cell-based, Plasmodium falciparum"}, "sleeping sickness": {"test_system": "sleeping sickness", "settings": "cited from earlier work"}, "T. brucei rhodesiense [3]": {"test_system": "T. brucei rhodesiense", "test": "Screening against T. brucei rhodesiense (Table 2)", "format": "cell-based, Trypanosoma brucei rhodesiense"}, "T. cruzi [4]": {"test_system": "T. cruzi", "test": "WHO screening against T. cruzi (Table 1)", "format": "cell-based, Trypanosoma cruzi", "settings": "Table 1, WHO screening"}, "[5]": {"test_system": "Leishmania donovani MHOM/ET/67/L82", "test": "Leishmania donovani amastigotes in primary peritoneal mouse macrophages, parasite growth after 96 hours", "format": "cell-based", "settings": "96 hours of incubation, read-out: IC50 L. donovani", "description": "One strain of Leishmania spp. (Leishmania.donovani MHOM/ET/67/L82) is used. The strain is maintained in the hamster. Amastigotes are collected from the spleen of an infected hamster and spleen parasite burden is assessed using the Stauber technique or amastigotes are counted in the haemocytometer after 1:100 dilution in trypan blue.\nPrimary peritoneal mouse (CDI or NMRI) macrophages are collected 1 day after a macrophage production stimulation with an i.p injection of 2 ml of 2% starch in distilled water. All cultures and assays are conducted at 37° C. under an atmosphere of 5% CO2. Ten mg/ml compound stock solutions are prepared as advised by the supplier, otherwise dissolved in 100% DMSO. Stock solutions are kept at 4° C. for a maximum of 2 weeks, thereafter at −20° C. The compounds are pre-diluted to 1 mg/ml. Assays are performed in sterile 16-well tissue culture slides, each well containing 100 μl of the compound dilutions together with 100 μl of macrophage/parasite inoculum (4×10^5 macrophages/ml and 1.2×10^6 parasites/ml). The inoculum is prepared in RPMI-1640 medium, supplemented with 10% heat inactivated fetal calf serum. […] After 96 hours of incubation, parasite growth is microscopically assessed after staining the cells with a 10% Giemsa solution. The results are expressed as IC50 calculated by linear regression analysis. […]"}, "T. cruzi [6]": {"test_system": "T. cruzi", "test": "Screening against T. cruzi (Table 2)", "format": "cell-based, Trypanosoma cruzi"}, "L-6 mammalian cells": {"test_system": "L-6 mammalian cells", "test": "Cytotoxicity assay on L-6 mammalian cells", "format": "cell-based"}, "T. brucei rhodesiense [7]": {"test_system": "T. brucei rhodesiense", "test": "WHO screening against Trypanosoma brucei (Table 1)", "format": "cell-based", "settings": "read-out: IC50 T. brucei rhodesiense", "description": "as §1"}, "human cell line (MRC-5)": {"test_system": "human cell line (MRC-5)", "test": "Cytotoxicity assay on a human cell line (MRC-5)", "format": "cell-based", "settings": "read-out: Cytox"}, "[8]": {"settings": "Trypanosoma brucei, RHODESIENSE"}},
  "note": "Read-outs that look alike come from different tables or passages of the source.",
  "data": [
    {"smiles": "CCN(CC)CCCC(C)Nc1ccnc2cc(Cl)ccc12", "note": "(stereo not shown) [Chloroquine]", "values": [
      {"measurement": "IC50", "setting": "P. falciparum [1]", "result": 14, "unit": "nM"},
      {"measurement": "IC50", "setting": "P. falciparum [2]; Plasmodium falciparum", "result": 5, "unit": "nM"}
    ]},
    {"smiles": "Nc1nc(N)nc(Nc2ccc([As]3SCC(CO)S3)cc2)n1", "note": "(stereo not shown) [Melarsoprol]", "values": [
      {"measurement": "patients treated killed outright", "setting": "sleeping sickness; patients, injected", "result": "3–10%"},
      {"measurement": "patients the drug fails to cure", "setting": "sleeping sickness; some areas of Africa (Omugo, Uganda; Ibba, South Sudan)", "result": "25–30%"},
      {"measurement": "IC50", "setting": "T. brucei rhodesiense [3]; [8]", "result": 10, "unit": "nM"}
    ]},
    {"smiles": "CC1CS(=O)(=O)CCN1/N=C/c1ccc([N+](=O)[O-])o1", "note": "(stereo not shown) [Nifurtimox]", "values": [
      {"measurement": "IC50", "setting": "T. cruzi [4]; Trypanosoma cruzi", "result": 1240, "unit": "nM"}
    ]},
    {"smiles": "OC1C(Cc2ccccc2)OC2COC(c3ccc(Cl)cc3)OC2C1O", "note": "(stereo not shown) [Compound A3]", "values": [
      {"measurement": "IC50", "setting": "[5]", "result": "< 980", "unit": "nM"},
      {"measurement": "IC50", "setting": "T. cruzi [6]", "result": 14300, "unit": "nM"},
      {"measurement": "IC50", "setting": "P. falciparum [2]", "result": "> 13300", "unit": "nM"},
      {"measurement": "IC50", "setting": "T. brucei rhodesiense [3]", "result": 20400, "unit": "nM"},
      {"measurement": "IC50", "setting": "L-6 mammalian cells", "result": 60000, "unit": "nM"}
    ]},
    {"smiles": "CCCCCCCCCCCCCCCCOP(=O)([O-])OCC[N+](C)(C)C", "note": "[Miltefosine]", "values": [
      {"measurement": "IC50", "setting": "[5]; Leishmania donovani, Macrophage", "result": 470, "unit": "nM"}
    ]},
    {"smiles": "Cc1ccc(C(=O)Nc2ccc(S(=O)(=O)O)c3cc(S(=O)(=O)O)cc(S(=O)(=O)O)c23)cc1NC(=O)c1cccc(NC(=O)Nc2cccc(C(=O)Nc3cc(C(=O)Nc4ccc(S(=O)(=O)O)c5cc(S(=O)(=O)O)cc(S(=O)(=O)O)c45)ccc3C)c2)c1", "note": "[Suramin]", "values": [
      {"measurement": "IC50", "setting": "T. brucei rhodesiense [7]; [8]", "result": 210, "unit": "nM"}
    ]},
    {"smiles": "O[C@@H]1[C@@H](O)[C@H](Sc2ccccc2)O[C@@H]2CO[C@@H](c3ccccc3)O[C@@H]12", "note": "[Compound A1]", "values": [
      {"measurement": "IC50", "setting": "T. brucei rhodesiense [7]; Table 1, WHO screening", "result": 187, "unit": "nM"},
      {"measurement": "IC50", "setting": "human cell line (MRC-5)", "result": "> 32000", "unit": "nM"},
      {"measurement": "IC50", "setting": "T. cruzi [4]", "result": "> 32000", "unit": "nM"}
    ]}
  ]
}
